The nature of data set [1]: Solubility. The format is physicochemical. To be noted: solvent in which soluble.
Data set [2] has as its system HCT116-Cas9. Put plainly: Growth suppression assay (resazurin). The data set is classed as cell-based. To be noted: 48 hours. As for the experimental part:
(§1) Cells were grown in 96-well plates at a density of 3000 cells per well with or without doxycycline and treated with compounds. After 48 hours of incubation the proliferative cell reagent resazurin (Thermo Fisher Scientific) was added to the cells. The degree of resazurin reduction, which reflects cell viability, was measured by microplate reader by monitoring the absorbance at 570 nm and 600 nm, according to the manufacturer.
(§2) Two carcinoma cell lines, MCF7 (breast carcinoma) and HCT116 (colon carcinoma) grown in 96-well plates, were treated with increasing concentrations of the synthesized compounds, ranging from […]. After 48 hours of incubation the proliferative cell reagent resazurin was added to the cells. The degree of resazurin reduction, which reflects cell viability, was measured by microplate reader by monitoring the absorbance at 570 nm and 600 nm, according to the manufacturer and the IC50 was determined (Table 1).
(In general: Resazurin is reduced to fluorescent resorufin, in cell work by metabolically active cells.)

The subject of data set [3] is MCF7-Cas9. Put plainly: Growth suppression assay (resazurin). The format is cell-based. To be noted: 48 hours, hydrochloride. As for the experimental part: as §1, §2

Broadly, the IC50 is the concentration at which inhibition is half-maximal. Read a low IC50 as inhibition by little substance.

Counter-ions that a name gives are not always drawn.

Consider `N#Cc1c(-c2ccncc2)[n+]([O-])c2cc(N3CCOCC3)c(F)cc2[n+]1[O-]` [Compound 1a, 7-Fluoro-6-(morpholin-4-yl)-3-(pyridin-4-yl)quinoxaline-2-carbonitrile 1,4-dioxide], for which the Solubility entry in data set [1] is reported as “Warm DMSO”.

As to `N#Cc1c(-c2cccnc2)[n+]([O-])c2cc(F)c(N3CCCCC3)cc2[n+]1[O-]` [Compound 1g, 6-Fluoro-7-(piperidin-1-yl)-3-(pyridin-3-yl)quinoxaline-2-carbonitrile-1,4-dioxide], the Solubility entry in data set [1] is reported as “Warm DMSO”.

In the case of `N#Cc1c(-c2ccncc2)[n+]([O-])c2cc(F)c(N3CCOCC3)cc2[n+]1[O-]` [Compound 1b, 6-Fluoro-7-(morpholin-4-yl)-3-(pyridin-4-yl)quinoxaline-2-carbonitrile-1,4-dioxide], the Solubility entry in data set [1] is listed as “Warm DMSO”. Take `N#Cc1c(-c2cccnc2)[n+]([O-])c2cc(F)c(N3CCCC3)cc2[n+]1[O-]` [Compound 1f, 6-Fluoro-7-(pyrrolidin-1-yl)-3-(pyridin-3-yl)quinoxaline-2-carbonitrile-1,4-dioxide]: in data set [1], the Solubility entry is reported as “Warm DMSO”.

Consider `N#Cc1c(-c2cccnc2)[n+]([O-])c2cc(N3CCOCC3)c(F)cc2[n+]1[O-]` [Compound 1c, 7-Fluoro-6-(morpholin-4-yl)-3-(pyridin-3-yl)quinoxaline-2-carbonitrile-1,4-dioxide], for which the Solubility entry in data set [1] is listed as “Warm DMSO”.

As to `N#Cc1c(-c2ccncc2)[n+]([O-])c2cc(F)c(N3CCOCC3)cc2[n+]1[O-]` [1b*MsOH, 6-Fluoro-7-(morpholin-4-yl)-3-(pyridin-4-yl)quinoxaline-2-carbonitrile-1,4-dioxide methanesulfonate], in data set [2] (methanesulfonate), the IC50 amounted to 3.4 µM.

In the case of `N#Cc1c(-c2cccnc2)[n+]([O-])c2cc(F)c(N3CCOCC3)cc2[n+]1[O-]` [Compound 1d, 6-Fluoro-7-(morpholin-4-yl)-3-(pyridin-3-yl)quinoxaline-2-carbonitrile-1,4-dioxide], in data set [1], the Solubility entry is “Warm DMSO”. As for `N#Cc1c(-c2ccncc2)[n+]([O-])c2cc(N3CCOCC3)c(F)cc2[n+]1[O-]` [1a*HCl, 7-Fluoro-6-(morpholin-4-yl)-3-(pyridin-4-yl)quinoxaline-2-carbonitrile-1,4-dioxide hydrochloride], the IC50 in data set [3] was above 10 µM; in data set [2] (hydrochloride), 9.3 µM.

For the origin of these results see patent US20260265216A1, “NOVEL THIOREDOXIN REDUCTASE INHIBITORS” (GENEXPLAIN GMBH, priority 2021, published 2026).
